Laboratory results: the supplement of paper PMC4862054

Columns and labels:
Experiment in all cases: normalised viability (% of control), CellTiter-Blue; higher = more viable cells (about 100 = DMSO control)
BT-549 [1] = conditions: incubation time: 72 h
How it was run: (§1)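 The reported figure is normalised viability at a single listed concentration of the series. Breast cancer cell lines (20 µl suspension) went onto 384-well plates holding compound in 5 µl medium for 72 h. CellTiter-Blue (2.5 µl, 2 h, 37 °C) was read by fluorescence at 560/590 nm, and each plate was scaled to vehicle at 100 and a positive kill control at 0.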

MDA-MB-468 [2] = conditions: incubation time: 72 h
How it was run: as §1

MDA-MB-436 [3] = conditions: incubation time: 72 h
How it was run: as §1

MFM-223 [4] = conditions: incubation time: 72 h
How it was run: as §1

CAL-51 [5] = conditions: incubation time: 72 h
How it was run: as §1

BT-474 [6] = conditions: incubation time: 72 h
How it was run: as §1

Hs578T [7] = conditions: incubation time: 72 h
How it was run: as §1

CAL-148 [8] = conditions: incubation time: 72 h
How it was run: as §1

SK-BR-3 [9] = conditions: incubation time: 72 h
How it was run: as §1

CAL-85-1 [10] = conditions: incubation time: 72 h
How it was run: as §1

MDA-MB-453 [11] = conditions: incubation time: 72 h
How it was run: as §1

HCC1937 [12] = conditions: incubation time: 72 h
How it was run: as §1

HDQ-P1 [13] = conditions: incubation time: 72 h
How it was run: as §1

CAL-120 [14] = conditions: incubation time: 72 h
How it was run: as §1

HCC1599 [15] = conditions: incubation time: 72 h
How it was run: as §1

DU-4475 [16] = conditions: incubation time: 72 h
How it was run: as §1

HCC1143 [17] = conditions: incubation time: 72 h
How it was run: as §1

MDA-MB-231 [18] = conditions: incubation time: 72 h
How it was run: as §1

BT-549 [19] = conditions: 100 nM; incubation time: 72 h
Protocol: (§2)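 DSRT, CellTiter-Blue viability, 72 h incubation. Signal is normalised to DMSO and benzethonium chloride controls. Value is the normalised response at dose 3.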

MDA-MB-468 [20] = conditions: 100 nM; incubation time: 72 h
Protocol: as §2

MDA-MB-436 [21] = conditions: 100 nM; incubation time: 72 h
Protocol: as §2

MFM-223 [22] = conditions: 100 nM; incubation time: 72 h
Protocol: as §2

CAL-51 [23] = conditions: 10 nM; incubation time: 72 h
Protocol: as §2

BT-474 [24] = conditions: 100 nM; incubation time: 72 h
Protocol: as §2

Hs578T [25] = conditions: 100 nM; incubation time: 72 h
Protocol: as §2

CAL-148 [26] = conditions: 10 nM; incubation time: 72 h
Protocol: as §2

SK-BR-3 [27] = conditions: 100 nM; incubation time: 72 h
Protocol: as §2

CAL-85-1 [28] = conditions: 10 nM; incubation time: 72 h
Protocol: as §2

MDA-MB-453 [29] = conditions: 10 nM; incubation time: 72 h
Protocol: as §2

HCC1937 [30] = conditions: 100 nM; incubation time: 72 h
Protocol: as §2

HDQ-P1 [31] = conditions: 10 nM; incubation time: 72 h
Protocol: as §2

CAL-120 [32] = conditions: 100 nM; incubation time: 72 h
Protocol: as §2

HCC1599 [33] = conditions: 100 nM; incubation time: 72 h
Protocol: as §2

DU-4475 [34] = conditions: 10 nM; incubation time: 72 h
Protocol: as §2

HCC1143 [35] = conditions: 100 nM; incubation time: 72 h
Protocol: as §2

MDA-MB-231 [36] = conditions: 100 nM; incubation time: 72 h
Protocol: as §2

O=P(O)(O)C(O)(Cn1ccnc1)P(=O)(O)O [Zoledronic acid]
normalised viability [%]
Conditions	3 nM	10 nM	30 nM	100 nM	1000 nM	10000 nM
BT-474 [6]	–	103	–	–	103	117
BT-549 [1]	–	92.5	–	–	108	91.3
CAL-51 [5]	108	–	116	102	–	–
CAL-85-1 [10]	91.6	–	83.2	96.5	–	–
CAL-120 [14]	–	81.2	–	–	98	91.8
CAL-148 [8]	92.2	–	84.4	92.6	–	–
DU-4475 [16]	107	–	95.8	99.8	–	–
HCC1143 [17]	–	82	–	–	85.2	85.2
HCC1599 [15]	–	94.1	–	–	75.3	95.4
HCC1937 [12]	–	96.4	–	–	95.5	99.7
HDQ-P1 [13]	94.6	–	91.9	84.1	–	–
Hs578T [7]	–	95.1	–	–	113	98.2
MDA-MB-231 [18]	–	92.2	–	–	89.3	95.9
MDA-MB-436 [3]	–	95	–	–	89.2	94.3
MDA-MB-453 [11]	101	–	96	101	–	–
MDA-MB-468 [2]	–	107	–	–	102	111
MFM-223 [4]	–	99.3	–	–	86.5	97.2
SK-BR-3 [9]	–	106	–	–	93.9	96.5

Conditions	normalised viability [%]
BT-474 [24]	102
BT-549 [19]	101
CAL-51 [23]	116
CAL-85-1 [28]	90.2
CAL-120 [32]	94.2
CAL-148 [26]	86.5
DU-4475 [34]	97.7
HCC1143 [35]	89.1
HCC1599 [33]	109
HCC1937 [30]	102
HDQ-P1 [31]	91.5
Hs578T [25]	85.3
MDA-MB-231 [36]	93.9
MDA-MB-436 [21]	113
MDA-MB-453 [29]	96.2
MDA-MB-468 [20]	117
MFM-223 [22]	91.7
SK-BR-3 [27]	91
